Our source for the IC50 values is patent publication US20250154163A1, “Pyrimidinone-Containing 17-Beta-Hydroxysteroid Dehydrogenase Type 13 Inhibitors” (ENANTA PHARMACEUTICALS, INC., priority 2023, published 2025).

Molecules are shown by their SMILES. pIC50: −log10 of the molar value.

Assay [1] concerns the target T1, human HSD17β13 (stable HEK293T cell line overexpressing human HSD17β13) (Homo sapiens, UniProt Q7Z5P4).
T1 construct: expressed in transfected cells
T1 sequence (Q7Z5P4 20-300): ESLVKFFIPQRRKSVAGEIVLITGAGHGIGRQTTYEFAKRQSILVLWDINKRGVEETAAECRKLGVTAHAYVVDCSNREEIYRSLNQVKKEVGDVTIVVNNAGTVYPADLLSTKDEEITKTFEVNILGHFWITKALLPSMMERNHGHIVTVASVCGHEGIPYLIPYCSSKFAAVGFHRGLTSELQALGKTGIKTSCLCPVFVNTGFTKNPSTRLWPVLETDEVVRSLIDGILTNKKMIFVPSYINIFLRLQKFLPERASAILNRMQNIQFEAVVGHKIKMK
Kind of assay: HSD17β13 inhibitor cell-based screening assay (conversion of estradiol-d2 to estrone-d2 by RF-MS). Conditions: conversion of estradiol-d2 to estrone-d2 after 24 hours. An outline of the steps: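 Cellular IC50 is based on 24-h conversion of estradiol-d2 (5 μM final) to estrone-d2, measured by RF-MS in acetonitrile-precipitated supernatants. Assay uses human HSD17β13-overexpressing HEK293T cells (7.5E3/well, 1% charcoal/dextran FBS MEM), with compounds dosed as a 9-point 1:3 series to 10 μM final. ATPlite luminescence on overexpressing and parent lines measured viability.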

For assay [2], the target named is T2, Recombinant human 17β-HSD13 (Homo sapiens, UniProt Q7Z5P4).
T2 construct: host or cells: Sf9 insect cells
T2 sequence (Q7Z5P4 20-300): T1 sequence (Q7Z5P4 20-300)
The assay is described as follows: 17β-HSD13 rapid-fire mass spectrometry assay (RF/MS assay). It is filed as biochemical. The settings on record: inhibition of 17β-HSD13, RF/MS assay; HSD17B13 80 nM, LTB4 10 μM, NAD+ 0.5 mM, RT 3 h. The gist of the method:
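Purified recombinant human 17β-HSD13 (sf9-expressed, 80 nM) incubated with compound (0–100 μM), 10 μM LTB4 and 0.5 mM NAD+ in 20 mM Tris pH 7.5, 0.005% BSA, 0.01% Tween-20, 3 h at RT. 12-oxo-LTB4 formation quantified by RapidFire MS/MS; percent conversion normalized to controls, IC50 from variable-slope fit, duplicates.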

As for `COc1ccc(-c2nc3sc4c(O)c(Cl)ccc4c3c(=O)n2Cc2cnco2)c(C(C)C)c1` [Example 125], the pIC50 in assay [1] and in assay [2] was greater than 7.00 throughout.

On to `COc1ccc(-c2nc3sc4c(O)c(Cl)ccc4c3c(=O)n2Cc2cn(C(F)(F)F)nn2)c(C2CC2)c1` [Example 130], for which the pIC50 in assay [1] and in assay [2] was greater than 7.00 each time.

For `O=c1c2c(nc(-c3ccc(OC(F)(F)F)cc3C3CC3)n1Cc1cnco1)sc1c(O)c(Cl)ccc12` [Example 131], the pIC50 in assay [1] and in assay [2] was greater than 7.00 throughout.

`O=c1c2c(nc(-c3ccc(F)c(F)c3C3CC3)n1Cc1cnco1)sc1c(O)c(Cl)ccc12` [Example 132]: the pIC50 in assay [1] and in assay [2] was greater than 7.00 each time.

With `O=c1c2c(nc(-c3cc(F)c(C(F)(F)F)cc3C3CC3)n1Cc1cnco1)sc1c(O)c(Cl)ccc12` [Example 133], the negative logarithm of the IC50 (pIC50) in assay [1] and in assay [2] was greater than 7.00 in each case.

`O=c1c2c(nc(-c3ccc(C(F)(F)F)cc3C3CC3)n1Cc1cnco1)sc1c(O)c(Cl)ccc12` [Example 135]: the negative-log IC50 (pIC50) in assay [1] and in assay [2] was greater than 7.00 each time.

In the case of `COc1cc(F)c(-c2nc3sc4c(O)c(Cl)ccc4c3c(=O)n2Cc2cnco2)c(C2CC2)c1` [Example 137], the pIC50 in assay [1] and in assay [2] was greater than 7.00 in each case.

As to `O=c1c2c(nc(-c3cc(Cl)c(F)cc3C3CC3)n1Cc1cnco1)sc1c(O)c(Cl)ccc12` [Example 138], the pIC50 in assay [1] and in assay [2] was greater than 7.00 throughout.

On to `O=c1c2c(nc(-c3cc(OC(F)(F)F)ccc3C3CC3)n1Cc1cnco1)sc1c(O)c(Cl)ccc12` [Example 143], for which the negative-log IC50 (pIC50) in assay [1] and in assay [2] was greater than 7.00 in each case.

For `O=c1c2c(nc(-c3c(F)cc(F)cc3C3CC3)n1Cc1cnco1)sc1c(O)c(Cl)ccc12` [Example 144], the pIC50 in assay [1] and in assay [2] was greater than 7.00 in each case.

As for `O=c1c2c(nc(-c3c(C4CC4)cc(F)c(F)c3F)n1Cc1cnco1)sc1c(O)c(Cl)ccc12` [Example 147], the pIC50 in assay [1] and in assay [2] was greater than 7.00 in each case.

On to `O=c1ccc(Cn2c(-c3cc(F)c(F)cc3C3CC3)nc3sc4c(O)c(Cl)ccc4c3c2=O)c[nH]1` [Example 169], for which the pIC50 in assay [1] and in assay [2] was greater than 7.00 throughout.

On to `O=c1c2c(nc(-c3ccc(C(F)F)cc3C3CC3)n1Cc1cc(C(F)(F)F)no1)sc1c(O)c(Cl)ccc12` [Example 171], for which the pIC50 in assay [1] and in assay [2] was greater than 7.00 throughout.

On to `Cn1cc(Cn2c(-c3cc(F)c(F)cc3C3CC3)nc3sc4c(O)c(Cl)ccc4c3c2=O)ccc1=O` [Example 174], for which the pIC50 in assay [1] and in assay [2] was greater than 7.00 in each case.

Turning to `O=c1c2c(nc(-c3cc(F)c(C(F)F)cc3C3CC3)n1Cc1cc(C(F)(F)F)no1)sc1c(O)c(Cl)ccc12` [Example 175], the pIC50 in assay [1] and in assay [2] was greater than 7.00 in each case.

For `O=c1c2c(nc(-c3cc(F)c(C(F)F)cc3C3CC3)n1Cc1cnc(C(F)(F)F)nc1)sc1c(O)c(Cl)ccc12` [Example 176], the negative logarithm of the IC50 (pIC50) in assay [1] and in assay [2] was greater than 7.00 each time.

As for `COc1ccc(-c2nc3sc4c(O)c(Cl)ccc4c3c(=O)n2Cc2cncs2)c(C2CC2)c1` [Example 190], the pIC50 in assay [1] and in assay [2] was greater than 7.00 in each case.

Turning to `COc1ccc(-c2nc3sc4c(O)c(Cl)ccc4c3c(=O)n2Cc2cnc(Cl)s2)c(C2CC2)c1` [Example 191], the negative logarithm of the IC50 (pIC50) in assay [1] and in assay [2] was greater than 7.00 each time.

On to `COc1ccc(-c2nc3sc4c(O)c(Cl)ccc4c3c(=O)n2Cc2ocnc2F)c(C2CC2)c1` [Example 220], for which the negative logarithm of the IC50 (pIC50) in assay [1] and in assay [2] was greater than 7.00 each time.
